Consider eight compounds from ChEMBL document CHEMBL1201862, “PubChem BioAssay data set” (2004).

Test systems include RXF 393; MDA-MB-435; MOLT-4; CAKI-1; NCI-H522; TK-10; Hs-578T; UO-31; M19-MEL; RPMI-8226; NCI-H23; SNB-19; M14; SW-620; KM12; NCI/ADR-RES; 786-0; IGROV-1; U-251; MDA-N.
What all share (experiment): NCI anticancer screen, dose series, 48 h

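Step 1: Grow cells in 96-well plates. Step 2: Expose to compound for 48 hours at 5 concentrations. Step 3: Interpolate endpoints linearly; if unreached, use highest concentration. GI50 marks 50% less growth.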 The source made the active and inactive calls. Rule as the data show it: active = GI50 up to about 1.1 µM and inactive = higher.

Turning to `O=C1CSC(/C(=C\c2ccc(Cl)cc2)c2nc3ccccc3[nH]2)=N1`, the GI50 with RXF 393 was 0.738 µM (active); in the assay on MDA-MB-435, 17.9 µM (inactive); in the assay on MOLT-4, 51.8 µM (inactive); in the assay with CAKI-1, 8.79 µM (inactive); in the assay with NCI-H522 it was 5.3 µM (inactive); with TK-10, 11.8 µM (inactive). For the same compound, the GI50 was 18.7 µM (inactive) in the assay with Hs-578T; 3.03 µM (inactive) in the assay with UO-31; 15.2 µM (inactive) with M19-MEL; 33.8 µM (inactive) with RPMI-8226; 14.8 µM (inactive) in the assay with NCI-H23; 19.2 µM (inactive) in the assay on SNB-19. Also, the GI50 in the assay on M14 is 22.6 µM (inactive); in the assay on SW-620 it was 18.5 µM (inactive); with KM12, 13.2 µM (inactive); in the assay with NCI/ADR-RES, 19.1 µM (inactive); in the assay with 786-0, 13.6 µM (inactive); in the assay on IGROV-1 it was 10.1 µM (inactive). Further, the GI50 in the assay on U-251 was 12.3 µM (inactive); with MDA-N, 18.2 µM (inactive).
With `Clc1ccc(C(c2ccccc2Cl)C(Cl)Cl)cc1` (centres undefined) [MITOTANE], the GI50 in the assay on RXF 393 was 11.6 µM (inactive); in the assay on MDA-MB-435 it was 3.08 µM (inactive); in the assay with MOLT-4, 14.7 µM (inactive); with CAKI-1 it was 13.1 µM (inactive); with NCI-H522 it was 16.7 µM (inactive); in the assay with TK-10, 20 µM (inactive). The GI50 is 3.26 µM (inactive) with Hs-578T; 16.9 µM (inactive) with UO-31; 19.7 µM (inactive) in the assay on M19-MEL; 14.5 µM (inactive) with RPMI-8226; 19 µM (inactive) in the assay with NCI-H23; 17.6 µM (inactive) in the assay on SNB-19. Also, the GI50 was 19.3 µM (inactive) with M14; 18 µM (inactive) in the assay with SW-620; 16 µM (inactive) in the assay with KM12; 15.3 µM (inactive) in the assay with NCI/ADR-RES; 19.2 µM (inactive) with 786-0; 13.9 µM (inactive) in the assay with IGROV-1. Further, the GI50 with U-251 was 16.6 µM (inactive); in the assay on MDA-N it was 18 µM (inactive).
On to `c1ccc2c(c1)nnn1c3cnccc3nc21`, for which the GI50 in the assay on RXF 393 is 24.7 µM (inactive); with MOLT-4 it was 15.7 µM (inactive); in the assay with CAKI-1 it was 28.6 µM (inactive); in the assay with NCI-H522, 13.9 µM (inactive); with TK-10 it was 35.2 µM (inactive); in the assay on UO-31 it was 38.9 µM (inactive). The GI50 in the assay with M19-MEL was 65.9 µM (inactive); in the assay on RPMI-8226 it was 18.5 µM (inactive); in the assay with NCI-H23, 37.8 µM (inactive); in the assay on SNB-19, 47.6 µM (inactive); in the assay on M14, 91 µM (inactive); with SW-620, 32.4 µM (inactive). Further, the GI50 with KM12 was 23.9 µM (inactive); in the assay with 786-0 it was 32.4 µM (inactive); in the assay on IGROV-1, 36.4 µM (inactive); in the assay on U-251, 28.3 µM (inactive).
On to `Cc1cc(N(CCC#N)CCC#N)ccc1/C=C1N=C(/C=C\c2ccccc2)OC\1=O`, for which the GI50 with RXF 393, in the assay with MOLT-4, in the assay on CAKI-1, in the assay on NCI-H522, in the assay on TK-10 and with UO-31 was > 100 µM (inactive) throughout. Also, the GI50 in the assay on M19-MEL, in the assay with RPMI-8226, in the assay on NCI-H23, with SNB-19, with M14 and with SW-620 was > 100 µM (inactive) in each case. The GI50 in the assay on KM12, in the assay on 786-0, in the assay on IGROV-1 and in the assay on U-251 was > 100 µM (inactive) in each case.
With `CCc1cccc(C(C)C)c1N1C(=O)C(=O)C(c2nc3ccccc3s2)C(=O)C1=O`, the GI50 in the assay with RXF 393 is > 50 µM (inactive); in the assay on MOLT-4, 12.6 µM (inactive); in the assay on CAKI-1, > 50 µM (inactive); in the assay on NCI-H522 it was 17.7 µM (inactive); in the assay with TK-10, > 50 µM (inactive); in the assay with UO-31, > 50 µM (inactive). The GI50 in the assay with M19-MEL is 39.1 µM (inactive); in the assay on RPMI-8226, 18.3 µM (inactive); in the assay with NCI-H23, 27.9 µM (inactive); with SNB-19 it was > 50 µM (inactive); with M14 it was > 44.4 µM (inactive); with SW-620, 32.7 µM (inactive). Besides, the GI50 in the assay on KM12 is > 44.7 µM (inactive); with 786-0, > 50 µM (inactive); with IGROV-1, > 50 µM (inactive); in the assay on U-251, > 48.3 µM (inactive).
As for `COC1C(O)CC(OC2CC(OC3CC(O[C@@H]4C(=O)c5c(cc6cc(OC7CC(OC8CC(O)C(O)C(C)O8)C(O)C(C)O7)c(C)c(O)c6c5O)C[C@H]4[C@H](OC)C(=O)[C@@H](O)[C@@H](C)O)OC(C)C3O)OC(C)C2O)OC1C` (some centres undefined), the GI50 in the assay on RXF 393 is < 0.01 µM (active); in the assay with MOLT-4 it was < 0.0159 µM (active); in the assay with CAKI-1, 0.356 µM (active); in the assay on NCI-H522, < 0.0118 µM (active); in the assay on TK-10 it was 0.0431 µM (active); with Hs-578T it was < 0.01 µM (active). Besides, the GI50 in the assay on UO-31 was 0.0318 µM (active); in the assay on M19-MEL, 0.0109 µM (active); in the assay with RPMI-8226, < 0.01 µM (active); in the assay with SNB-19, < 0.0194 µM (active); in the assay on M14 it was 0.0267 µM (active); in the assay on SW-620 it was < 0.0228 µM (active). In addition, the GI50 in the assay on KM12 was 0.0168 µM (active); in the assay with 786-0, < 0.0194 µM (active); with U-251 it was 0.0112 µM (active).
Take `COc1ccc2nc3cc(Cl)ccc3c(Nc3ccccc3-c3ccccc3Nc3c4ccc(Cl)cc4nc4ccc(OC)cc34)c2c1`: the GI50 is 14.9 µM (inactive) with RXF 393; 8.32 µM (inactive) in the assay with MDA-MB-435; 3.13 µM (inactive) in the assay on MOLT-4; 21.3 µM (inactive) in the assay with CAKI-1; 8.43 µM (inactive) in the assay on NCI-H522; 64.1 µM (inactive) in the assay with TK-10. Moreover, the GI50 was 27.7 µM (inactive) in the assay on Hs-578T; 26.9 µM (inactive) in the assay on UO-31; > 34.7 µM (inactive) in the assay on M19-MEL; 8.17 µM (inactive) in the assay with RPMI-8226; 21.7 µM (inactive) in the assay with NCI-H23; 40.4 µM (inactive) in the assay on SNB-19. The GI50 was 43.6 µM (inactive) in the assay on M14; 15.4 µM (inactive) in the assay on SW-620; 22.7 µM (inactive) with KM12; 13.6 µM (inactive) in the assay with NCI/ADR-RES; 26.7 µM (inactive) with 786-0; 45.7 µM (inactive) with IGROV-1. In addition, the GI50 in the assay on U-251 was 37.3 µM (inactive); in the assay on MDA-N, 3.43 µM (inactive).
With `Nc1nc[n+](Cc2ccccc2CCO)c2[nH]cnc12`, the GI50 in the assay on RXF 393 was > 100 µM (inactive); with MOLT-4, > 100 µM (inactive); in the assay with CAKI-1, > 100 µM (inactive); in the assay with NCI-H522 it was > 100 µM (inactive); with TK-10, > 100 µM (inactive); with UO-31, 89.3 µM (inactive). Further, the GI50 in the assay with M19-MEL, with RPMI-8226, in the assay on NCI-H23, with SNB-19, in the assay with M14 and in the assay with SW-620 was > 100 µM (inactive) throughout. In addition, the GI50 in the assay with KM12, in the assay with 786-0, in the assay with IGROV-1 and in the assay on U-251 was > 100 µM (inactive) throughout.
